This is an account of results in article PMC9760738, “Pharmacokinetics, absorption, distribution, metabolism and excretion of the MEK inhibitor zapnometinib in rats” (Frontiers in Pharmacology, 2022).

Type in all cases: in vivo, rat
Series [1] in a line: Metabolite profiling of plasma extracts by radio-HPLC (Group 3). The following applies: for concentration at 2 h / concentration at 8 h: rat, plasma, oral, 30 mg/kg, read-out: Concentration in plasma extract. The protocol:
(§1) Metabolite profiling was performed by HPLC analysis according to the company’s SOP of plasma (Group 3), urine (Group 2) and feces (Group 2) samples. Briefly, for metabolite profiling and identification, radioactivity (cpm) was measured in HPLC eluent fractions that had previously been collected at 12 s intervals for the duration of the run (65 min) into 96-well Deep Well LumaPlates and dried in a centrifugal evaporator. A Microbeta2 scintillation counter was used to count each plate, with wells simultaneously counted for 2 min, after an initial 5 min delay. A subsample of plasma was analyzed (ca 2 ml) taken from individual animals to provide representative samples, for each sex, at 2, 8 and 168 h post dose (n = 6). Equal proportions of the total urine weight voided from Group 2 animals was pooled to provide representative samples for each sex at 0–6 h, 6–24 h and 24–48 h post dose (n = 6). Equal proportions of the total feces homogenate generated from the samples voided by the three rats (Group 2) were pooled to provide representative samples for each sex at 0–24 and 24–48 h post dose ([…]). Sample preparation was carried out due to the company’s SOPs (see Supplementary Methods). The extractability was ≥95.0% (95.0–100%) TRR (Total Radioactive Residue) for plasma and ≥88.3% (88.3%–91.3%) TRR for feces. As reference, a standard solution of zapnometinib (0.1 mg/ml in acetonitrile) was used. To assess HPLC method suitability, a column recovery was assessed on each representative sample (one per matrix). The recovery of radioactivity from the HPLC column was determined by collecting the column eluent, following an injection of a representative sample (one per matrix), and determining the radioactive content by submitting aliquots for LSC analysis. The results of these analyses were between 93.8%–105.1% column recoveries.
(§2) Next, radioactive metabolic components of zapnometinib in urine, plasma and feces extracts were isolated and profiled. The components were quantified by fraction collection/scintillation analysis, as appropriate to the radioactivity concentrations. Mass spectroscopy was used to propose identities of the major circulatory and excreted metabolites, and to correlate the metabolites detected in the different matrices. Components identified by LC-MS/MS were related to the quantified HPLC analysis by comparison of related radiochromatograms and comparison of elution order. Representative HPLC radiochromatograms of pooled feces extracts collected during 0–24 and 24–48 h post dose from male and female rats (which reveal the main metabolites) were qualitatively similar with some minor sex differences (Figure 3).

Series [2] in a line: QWBA tissue radioactivity, single oral 30 mg/kg, female partially pigmented rats (Group 3); Table 6 columns c2-c8 = 0.5, 2, 4, 8, 24, 72, 168 h. The following applies: 2 h. The method, then: (§3) The whole-body autoradiography techniques by Ullberg and Larsson was used in this study ([Ullberg and Larsson 1981]). Following a single oral administration of [^14C]-zapnometinib to seven male and seven female partially pigmented rats (Group 3) and four male albino rats (Group 4), one animal per sex (where appropriate) was killed at the following time points post dose: Group 3 (pigmented): 0.5, 2, 4, 8, 24, 72, and 168 h, Group 4 (albino): 2, 24, 72 and 168 h. At sacrifice, each rat was anaesthetized with isoflurane and a blood sample (ca 5 ml) was collected by cardiac puncture into a tube containing K2EDTA anticoagulant. Blood was centrifuged at 2000 ×g for 10 min at 4°C to obtain plasma, which was transferred into plain tubes pending measurement of radioactivity concentration. The blood cells were also retained for analysis.
(§4) The rat carcasses were immediately attached to a plate and frozen in a bath of n-heptane and solid CO2 at ca –80°C and then stored at –20 ± 10°C until taken for sectioning. […] [^14C]-Blood standards containing six different known concentrations of radioactivity were used to construct the calibration line for the quantitative determination of tissue concentrations of radioactivity. […] The electronic images of all sections were analyzed at Labcorp–Huntingdon using a validated image analysis package (Seescan Densitometry software, version 2.0). […]

Series [3] is described as follows: Metabolite profiling of pooled feces extracts by radio-HPLC (Group 2). The following applies: for Proportion of feces sample radioactivity: 24-48 h. The method, then: as §1
as §2, with “3). […]” for “3).”
times with the following solvents following the same procedure: Extract 2 – Acetonitrile/methanol 4:1 (v/v); Extract 3 – Acetonitrile/Water 1:1 (v/v). Duplicate weighed aliquots of each supernatant (ca 0.1 mL) were mixed directly with Ultima Gold scintillation cocktail for measurement of radioactivity concentrations. The extracted residue was allowed to air dry and the total weight was recorded. Duplicate weighed portions (ca 0.05g) were taken for radioassay after oxidation. The extracts were combined and concentrated under a constant stream of nitrogen gas to near dryness and reconstituted in acetonitrile/0.1% aqueous formic acid, 1:1 (v/v) by vortex mixing, sonication and centrifugation at 10000 × g for 5 min at 4°C.
The concentrates were weighed, and duplicate weighed aliquots (0.025 – 0.05 mL) taken for measurement of radioactivity to calculate recovery following concentration. An aliquot of each concentrated extract was injected into the HPLC. […]
(100 mL) in purified water (600 mL) and methanol (300 mL). After measurement of total sample weight (as appropriate), replicate portions of diluted dose solutions (ca 0.1 mL), plasma (ca 0.05 – 0.25 mL), urine (ca 0.05 – 0.25 mL), expired air trap solution (ca 1 mL) and cage wash (ca 1 mL) were mixed directly with Ultima Gold scintillation cocktail (5 mL; 15 mL for […]

Series [4] in a line: QWBA tissue radioactivity, single oral 30 mg/kg, male partially pigmented rats (Group 3); 0.5, 2, 4, 8, 24, 72, 168 h. The protocol:
as §3, §4

Where two headings read alike, the source gives them in different places. Bounds are passed on as bounds.

Regarding `O=C(O)c1ccc(F)c(F)c1Nc1ccc(I)cc1Cl` [zapnometinib, 2-(2-Chloro-4-iodophenylamino)-3,4-difluorobenzoic acid], the “Proportion in plasma extract” value in series [1] (2 hours, female rats) is reported as 97.9 % sample; in series [1] (2 hours, male rats) it was 92.0 % sample; in series [1] (8 hours, female rats), 88.7 % sample; in series [1] (8 hours, male rats) it was 92.5 % sample. Moreover, the “Extractability of plasma radioactivity” value in series [1] (all measured time points) was > 90 % TRR. Further, the “Plasma concentration of unchanged zapnometinib” value in series [1] (by 168 h post dose) is “below the limit of quantification”. For the same molecule, the concentration at 2 h in series [1] (2 hours, female rats) was 78400 ng/g; in series [1] (2 hours, male rats), 64400 ng/g. In addition, the concentration at 8 h in series [1] (8 hours, female rats) was found to be 80700 ng/g; in series [1] (8 hours, male rats), 72100 ng/g. For the same molecule, the “Radioactivity in all remaining tissues” value in series [2] is ≤ 74.4 µg equivs/g; in series [4] (2 h, male) it was ≤ 70.0 μg equivs/g. The “Amount in pooled feces extracts” value came out at 19.87 % Dose in series [3] (0-24 hours, female rats); 19.28 % Dose in series [3] (0-24 hours, male rats); 6.30 % Dose in series [3] (24-48 hours, female rats); 2.15 % Dose in series [3] (24-48 hours, male rats); 26.17 % Dose in series [3] (Total (0-48 hours), female rats). Further, the entries for the “Proportion of feces sample radioactivity” value in series [3] (female rats) and in series [3] (male rats) were 28.5 % sample radioactivity and 21.5 % sample radioactivity, respectively. Moreover, the “Penetration into the brain” value in series [4] (whole body autoradiography) is listed as “low”.
